Where a SMILES comes first, the peptide text is derived from it. Bridges are numbered along the chain shown (N, C = ends). Side-chain parts run from the residue outwards. [ ]: non-standard residue; d: D form. The star is where a group is joined. X4 = O=C(O)CN1CCN(CC(=O)O)CCN(CC(=O)N[C@@H](CS(=O)(=O)O)C(=O)NCCCC[C@H](NC(=O)CNC(=O)CCCc2ccc(Cl)cc2)C(=O)*)CCN(CC(=O)O)CC1; X7 = COc1ccc(CCCC(=O)NCCCC[C@H](NC(=O)CN2CCN(CC(=O)O)CCN(CC(=O)O)CCN(CC(=O)O)CC2)C(=O)*)cc1; 2Nal = N[C@@H](Cc1ccc2ccccc2c1)C(=O)O; Lys(iPr) = CC(C)NCCCC[C@H](N)C(=O)O; Cya = N[C@@H](CS(=O)(=O)O)C(=O)O
Assay: in vivo
Set-up: species or system mice
Conditions: male, NOD.Cg-Rag1tm1Mom Il2rgtm1Wjl/SzJ (NRG), mouse, iv, total radioactivity
Description: The Z138 Mantle cell lymphoma cell line was purchased from the American Type Culture Collection (ATCC©CRL-3001). The cell line was cultured in a 5% CO2 atmosphere at 37° C. in a humidified incubator with IMDM medium supplemented with 10% fetal bovine serum, 100 I.U./mL penicillin, and 100 μg/mL streptomycin.
[^68Ga]GaCl3 was eluted from an iThemba Labs generator with a total of 4 mL of 0.1 M HCl. The eluted [^68Ga]GaCl3 solution was added to 2 mL of concentrated HCl. This radioactive mixture was then added to a DGA resin column and washed with 3 mL of 5 M HCl. The column was then dried with air and the [^68Ga]GaCl3 (0.10-0.50 GBq) was eluted with 0.5 mL of water into a vial containing a solution of the unlabeled precursor (25 μg) in 0.7 mL HEPES buffer (2 M, pH 5.3). The reaction mixture was heated in a microwave oven (Danby; DMW7700WDB) for 1 min at power setting 2. The mixture was purified by semi-prep HPLC and quality control was performed via analytical HPLC with the co-injection of the unlabeled standard with a one-twelfth of the radiotracer. Radiochemical yields (decay-corrected) were >50% and radiochemical purities were >95%.
Animal experiments were performed in accordance with guidelines established by the Canadian Council on Animal Care, under a research protocol approved by the Animal Ethics Committee of the University of British Columbia. For all studies, male NOD.Cg-Rag1tm1Momll2rgtm1Wjl/SzJ (NRG) mice were used and cells injected in a 100 μL solution of 1:1 ratio of PBS/Matrigel. For preclinical imaging and biodistribution studies, 5×10^6 cells of Z138, cells were subcutaneously inoculated on the left or right flank and tumors were grown to a size of 200-300 mm^3. […]
Under isoflurane anesthesia (2-2.5% isoflurane in 2 L/min 02), mice were injected intravenously with [^68Ga]Ga-BL34L6 or [^68Ga]Ga-BL34L7. Mice were euthanized by CO2 inhalation after anesthesia with isoflurane. Tissues were harvested, washed in PBS, patted dry, weighed, and then assayed radioactivity on a gamma counter. Counted radioactivities were converted to percentage injected dose per gram of tissue (% ID/g) using a calibration curve.

[1] = Biodistribution: Small Intestine

Row | tissue uptake at 1 h (Biodistribution: Adrenals) [%ID/g] | tissue uptake at 1 h (Biodistribution: Blood) [%ID/g] | tissue uptake at 1 h (Biodistribution: Bone) [%ID/g] | tissue uptake at 1 h (Biodistribution: Brain) [%ID/g] | tissue uptake at 1 h (Biodistribution: Heart) [%ID/g] | tissue uptake at 1 h (Biodistribution: Kidneys) [%ID/g] | tissue uptake at 1 h (Biodistribution: Liver) [%ID/g] | tissue uptake at 1 h (Biodistribution: Lungs) [%ID/g] | tissue uptake at 1 h (Biodistribution: Muscle) [%ID/g] | tissue uptake at 1 h (Biodistribution: Pancreas) [%ID/g] | tissue uptake at 1 h [1] [%ID/g] | tissue uptake at 1 h (Biodistribution: Spleen) [%ID/g] | tissue uptake at 1 h (Biodistribution: Stomach) [%ID/g] | tissue uptake at 1 h (Biodistribution: Testes) [%ID/g] | tissue uptake at 1 h (Biodistribution: Z138 Tumor) [%ID/g] | tissue to tissue ratio at 1 h (Ratio Tumor-to-Blood) | tissue to tissue ratio at 1 h (Ratio Tumor-to-Bone) | tissue to tissue ratio at 1 h (Ratio Tumor-to-Kidney) | tissue to tissue ratio at 1 h (Ratio Tumor-to-Muscle) | tissue to tissue ratio at 1 h (Ratio Tumor-to-Pancreas) | SMILES | further results
1 | 2.62 | 13.3 | 1.04 | 0.19 | 3.11 | 5.01 | 2.9 | 9.23 | 0.99 | 1.24 | 1.31 | 2.3 | 0.49 | 1.95 | 12.2 | 0.93 | 12.7 | 2.52 | 12.8 | 10.1 | CC(C)NCCCC[C@H](NC(=O)[C@H]1CCC(=O)N[C@@H](CCCCNC(=O)[C@H](CCCCNC(=O)[C@H](CS(=O)(=O)O)NC(=O)CN2CCN(CC(=O)O)CCN(CC(=O)O)CCN(CC(=O)O)CC2)NC(=O)CNC(=O)CCCc2ccc(Cl)cc2)C(=O)N[C@@H](Cc2ccc(O)cc2)C(=O)N[C@@H](CCCCNC(C)C)C(=O)N[C@H](CCCNC(=N)N)C(=O)N[C@@H](Cc2ccc3ccccc3c2)C(=O)N[C@H](C)C(=O)N1)C(N)=O [[68Ga]Ga-BL34T1, metal not drawn] (K(X4)Y[Lys(iPr)][dR][2Nal][dA][dE][Lys(iPr)]-NH2; lactam N-7) | tissue uptake at 3 h (Biodistribution: Adrenals): 1.93 %ID/g; tissue uptake at 3 h (Biodistribution: Blood): 7.55 %ID/g; tissue uptake at 3 h (Biodistribution: Bone): 1.28 %ID/g; tissue uptake at 3 h (Biodistribution: Brain): 0.16 %ID/g; tissue uptake at 3 h (Biodistribution: Heart): 1.91 %ID/g; tissue uptake at 3 h (Biodistribution: Kidneys): 4.15 %ID/g; tissue uptake at 3 h (Biodistribution: Liver): 3.02 %ID/g; tissue uptake at 3 h (Biodistribution: Lungs): 5.9 %ID/g; tissue uptake at 3 h (Biodistribution: Muscle): 0.73 %ID/g; tissue uptake at 3 h (Biodistribution: Pancreas): 0.92 %ID/g; tissue uptake at 3 h [1]: 0.89 %ID/g; tissue uptake at 3 h (Biodistribution: Spleen): 2.08 %ID/g; tissue uptake at 3 h (Biodistribution: Stomach): 0.44 %ID/g; tissue uptake at 3 h (Biodistribution: Testes): 1.71 %ID/g; tissue uptake at 3 h (Biodistribution: Z138 Tumor): 23.7 %ID/g; tissue to tissue ratio at 3 h (Ratio Tumor-to-Blood): 3.17; tissue to tissue ratio at 3 h (Ratio Tumor-to-Bone): 21.9; tissue to tissue ratio at 3 h (Ratio Tumor-to-Kidney): 5.78; tissue to tissue ratio at 3 h (Ratio Tumor-to-Muscle): 32.6; tissue to tissue ratio at 3 h (Ratio Tumor-to-Pancreas): 26
2 | 0.7 | 0.77 | 0.56 | 0.03 | 0.45 | 5.66 | 12.5 | 4.14 | 0.19 | 0.21 | 0.58 | 2.44 | 0.12 | 0.33 | 7.97 | 10.4 | 15.5 | 1.41 | 41.8 | 38.1 | CC(C)NCCCC[C@H](NC(=O)[C@@H]1CCSc2c3cccc([N+](=O)[O-])c3cn2[C@@H](CCCCNC(=O)[C@H](CS(=O)(=O)O)NC(=O)CN2CCN(CC(=O)O)CCN(CC(=O)O)CCN(CC(=O)O)CC2)C(=O)CC(Cc2ccc(O)cc2)C(=O)N[C@@H](CCCCNC(C)C)C(=O)N[C@H](CCCNC(=N)N)C(=O)N[C@@H](Cc2ccc3ccccc3c2)C(=O)N[C@H](C)C(=O)N1)C(N)=O (some centres unmarked) [[^68Ga]Ga-3NOPA-BL34L2, metal not drawn] | 
3 | 0.29 | 0.83 | 0.14 | 0.01 | 0.22 | 2.07 | 1.6 | 0.99 | 0.12 | 0.12 | 0.24 | 0.45 | 0.05 | 0.26 | 8.92 | 11.6 | 66.5 | 4.36 | 84.6 | 75.3 | COc1ccc(CCCC(=O)NCCCC[C@H](NC(=O)CN2CCN(CC(=O)O)CCN(CC(=O)O)CCN(CC(=O)O)CC2)C(=O)N[C@@H](CS(=O)(=O)O)C(=O)NCCCC[C@@H]2NC(=O)CC[C@H](C(=O)N[C@@H](CCCCNC(C)C)C(N)=O)NC(=O)[C@@H](C)NC(=O)[C@H](Cc3ccc4ccccc4c3)NC(=O)[C@@H](CCCNC(=N)N)NC(=O)[C@H](CCCCNC(C)C)NC(=O)[C@H](Cc3ccc(O)cc3)NC2=O)cc1 [[68Ga]Ga-BL34L6, metal not drawn] (K([Cya-X7])Y[Lys(iPr)][dR][2Nal][dA][dE][Lys(iPr)]-NH2; lactam N-7) | 

Source: patent US20250242064A1, “CXCR4-TARGETING COMPOUNDS, AND METHODS OF MAKING AND USING THE SAME” (PROVINCIAL HEALTH SERVICES AUTHORITY, priority 2022, published 2025)
